# Test results as given in patent US9522888B2, “Substituted bicyclic compounds” (BRISTOL-MYERS SQUIBB COMPANY, priority 2014, dated 2016).
# Experiments:
# human S1P1 = human S1P1 (Homo sapiens (Human), UniProt P21453); assay: S1P1 binding assay (33P-S1P radioligand competition, CHO cell membranes); conditions: phosphate examples; read-out: S1P1 Binding
# Description: Membranes were prepared from CHO cells expressing human S1P1. Cells pellets (1×10^9 cells/pellet) were suspended in buffer containing 20 mM HEPES (4-(2-hydroxyethyl)-1-piperazineethanesulfonic acid), pH 7.5, 50 mM NaCl, 2 mM EDTA (Ethylenediaminetetraacetic acid) and Protease Inhibitor cocktail (Roche), and disrupted on ice using the Polytron homogenizer. The homogenate was centrifuged at 20,000 rpm (48,000 g) and the supernatant was discarded. The membrane pellets were resuspended in buffer containing 50 mM HEPES, pH 7.5, 100 mM NaCl, 1 mM MgCl2, 2 mM EDTA and stored in aliquots at −80° C. after protein concentration determination.
# [1] = biological target: S1P1 (membranes prepared from S1P1/CHO cells) (Homo sapiens (Human), UniProt P21453); assay: Receptor [35S] GTPγS binding assay (S1P1 GTPγS); assay type: biochemical; conditions: phosphate examples; read-out: S1P1 GTPγS
# Sequence of S1P1 (membranes prepared from S1P1/CHO cells) (P21453 whole entry): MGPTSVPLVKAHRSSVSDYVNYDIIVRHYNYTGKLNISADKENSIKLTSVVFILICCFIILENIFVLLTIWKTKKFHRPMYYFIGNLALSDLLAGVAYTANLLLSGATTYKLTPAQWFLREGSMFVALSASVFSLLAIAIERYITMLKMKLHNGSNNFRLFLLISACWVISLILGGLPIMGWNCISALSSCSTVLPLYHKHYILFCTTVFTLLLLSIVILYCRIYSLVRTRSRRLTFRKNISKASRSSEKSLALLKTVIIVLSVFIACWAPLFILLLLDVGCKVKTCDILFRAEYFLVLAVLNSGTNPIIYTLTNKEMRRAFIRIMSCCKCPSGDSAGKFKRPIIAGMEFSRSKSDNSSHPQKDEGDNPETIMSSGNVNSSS
# Description: (§1) Receptor [^35S] GTPγS Binding Assays: (S1P1 GTPγS/S1P3 GTPγS)
# Compounds were loaded in a 384 Falcon v-bottom plate (0.5 μl/well in a 11 point, 3-fold dilution). Membranes prepared from S1P1/CHO cells or EDG3-Gal5-bla HEK293T cells (EDG3 equivalent S1P3) were added to the compound plate (40 μl/well, final protein 3 μg/well) with MULTIDROP®. [^35S] GTP (1250 Ci/mmol, Perkin Elmer) was diluted in assay buffer: 20 mM HEPES, pH7.5, 10 mM MgCl2, 150 mM NaCl, 1 mM EGTA (ethylene glycol tetraacetic acid), 1 mM DTT (Dithiothreitol), 10 μM GDP, 0.1% fatty acid free BSA, and 10 μg/ml Saponin to 0.4 nM. 40 μl of the [^35S] GTP solution was added to the compound plate with a final concentration of 0.2 nM. The reaction was kept at room temperature for 45 min. At the end of incubation, all the mixtures in the compound plate were transferred to Millipore 384-well FB filter plates via the VELOCITY11® Vprep liquid handler. The filter plate was washed with water 4 times by using the manifold Embla plate washer and dried at 60° C. for 45 min. MicroScint 20 scintillation fluid (30 μl) was added to each well for counting on the Packard TOPCOUNT®. […]
# [2] = biological target: S1P3 (membranes prepared from EDG3-Gal5-bla HEK293T cells) (Homo sapiens (Human), UniProt Q99500); assay: Receptor [35S] GTPγS binding assay (S1P3 GTPγS); assay type: biochemical; conditions: phosphate examples; read-out: S1P3 GTPγS
# Sequence of S1P3 (membranes prepared from EDG3-Gal5-bla HEK293T cells) (Q99500 whole entry): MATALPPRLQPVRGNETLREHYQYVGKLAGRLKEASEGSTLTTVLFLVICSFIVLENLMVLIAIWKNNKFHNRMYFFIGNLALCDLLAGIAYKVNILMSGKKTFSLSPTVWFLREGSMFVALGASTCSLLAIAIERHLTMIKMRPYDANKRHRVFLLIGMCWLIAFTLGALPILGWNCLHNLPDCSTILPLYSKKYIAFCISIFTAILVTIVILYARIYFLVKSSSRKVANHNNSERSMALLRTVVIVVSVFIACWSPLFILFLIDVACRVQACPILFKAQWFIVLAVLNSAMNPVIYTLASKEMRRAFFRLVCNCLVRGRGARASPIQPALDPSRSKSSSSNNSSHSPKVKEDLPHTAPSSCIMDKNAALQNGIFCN
# Description: as §1
# Compounds were loaded in a 384 Falcon v-bottom plate (0.5 μl/well in a 11 point, 3-fold dilution). Membranes prepared from S1P1/CHO cells or EDG3-Gal5-bla HEK293T cells (EDG3 equivalent S1P3) were added to the compound plate (40 μl/well, final protein 3 μg/well) with MULTIDROP®. [^35S] GTP (1250 Ci/mmol, Perkin Elmer) was diluted in assay buffer: 20 mM HEPES, pH7.5, 10 mM MgCl2, 150 mM NaCl, 1 mM EGTA (ethylene glycol tetraacetic acid), 1 mM DTT (Dithiothreitol), 10 μM GDP, 0.1% fatty acid free BSA, and 10 μg/ml Saponin to 0.4 nM. 40 μl of the [^35S] GTP solution was added to the compound plate with a final concentration of 0.2 nM. The reaction was kept at room temperature for 45 min. At the end of incubation, all the mixtures in the compound plate were transferred to Millipore 384-well FB filter plates via the VELOCITY11® Vprep liquid handler. The filter plate was washed with water 4 times by using the manifold Embla plate washer and dried at 60° C. for 45 min. MicroScint 20 scintillation fluid (30 μl) was added to each well for counting on the Packard TOPCOUNT®.
# A smaller value for GTPγS S1P1 EC50 value indicated greater activity for the compound in the GTPγS S1P1 binding assay. A larger value for the GTPγS S1P3 EC50 value indicated less activity in the GTPγS S1P3 binding assay. […] Thus the compounds of the present invention may be used in treating, preventing, or curing various S1P1 receptor-related conditions while reducing or minimizing the side effects due to S1P3 activity. The selectivity of the compounds of the present invention indicate their potential use in treating, preventing, or curing autoimmune and inflammatory diseases such as multiple sclerosis, rheumatoid arthritis, inflammatory bowel disease, lupus, psoriasis, or vascular diseases, while reducing or minimizing possible side effects due to S1P3 activity. Other potential uses of the compounds of the present invention include minimizing or reducing rejection of transplanted organs, while reducing or minimizing side effects due to S1P3 activity.
# hS1P1/CHO cells = hS1P1/CHO cells (Homo sapiens (Human), UniProt P21453); assay: hS1P1 ERK phosphorylation (S1P1 pERK); assay type: cell-based; conditions: phosphate examples
# Sequence of hS1P1/CHO cells (P21453 whole entry): as the sequence (P21453 whole entry) above
# Description: hS1P1 ERK Phosphorylation (S1P1 pERK)
# hS1P1/CHO cells were plated into BD Amine 384-well plates the day before the assay. On the day of the assay, growth medium was removed and replaced with serum-free medium (Ham's F-12 Invitrogen) and incubated for 2 hours. Test compounds pre-diluted in HBSS (Gibco)/20 mM HEPES (Gibco) were transferred to the cell plates and incubated for 7 minutes at 37° C. Cells were lysed in lysis buffer (Perkin Elmer) and phospho-ERK was measured using the SureFire pERK kit (Perkin Elmer) as described by the manufacturer. Data was plotted as percentage activation of the test compound relative to the efficacy of 10 μM S1P.
# Sequence of human S1P1 (P21453 whole entry): as above
Compound,IC50 (human S1P1),EC50 [1],EC50 [2],EC50 (hS1P1/CHO cells)
CCCCCO[C@@H]1CCc2cc([C@@H]3CC[C@](N)(COP(=O)(O)O)C3)ccc2C1 [compound 433],10 to 100 nM,100 to 1000 nM,> 625 nM,< 10 nM
CCCCCO[C@H]1CCc2cc([C@@H]3CC[C@](N)(COP(=O)(O)O)C3)ccc2C1 [compound 434],< 10 nM,10 to 100 nM,> 625 nM,< 10 nM
CCCCO[C@H]1CCc2cc([C@H]3CC[C@](N)(COP(=O)(O)O)C3)ccc2C1 [compound 436],< 10 nM,10 to 100 nM,> 625 nM,< 10 nM
CCC/C=C\CO[C@H]1CCc2cc([C@H]3CC[C@](N)(COP(=O)(O)O)C3)ccc2C1 [compound 437],< 10 nM,< 10 nM,> 625 nM,< 10 nM
CCC/C=C\CO[C@@H]1CCc2cc([C@H]3CC[C@](N)(COP(=O)(O)O)C3)ccc2C1 [compound 438],< 10 nM,10 to 100 nM,> 625 nM,< 10 nM
CCCC/C=C\CO[C@H]1CCc2cc([C@H]3CC[C@](N)(COP(=O)(O)O)C3)ccc2C1 [compound 440],< 10 nM,< 10 nM,> 625 nM,< 10 nM
COc1cccc(CO[C@H]2CCc3cc([C@H]4CC[C@](N)(COP(=O)(O)O)C4)ccc3C2)c1 [compound 442],< 10 nM,< 10 nM,> 625 nM,< 10 nM
CCOc1cccc(CO[C@@H]2CCc3cc([C@H]4CC[C@](N)(COP(=O)(O)O)C4)ccc3C2)c1 [compound 444],< 10 nM,< 10 nM,> 625 nM,< 10 nM
N[C@]1(COP(=O)(O)O)CC[C@H](c2ccc3c(c2)CC[C@H](COCc2ccccc2)C3)C1 [compound 445],10 to 100 nM,10 to 100 nM,> 625 nM,10 to 100 nM
CCCCOC[C@H]1CCc2cc([C@H]3CC[C@](N)(COP(=O)(O)O)C3)ccc2C1 [compound 446],10 to 100 nM,100 to 1000 nM,> 625 nM,< 10 nM
CCCCOC[C@@H]1CCc2cc([C@H]3CC[C@](N)(COP(=O)(O)O)C3)ccc2C1 [compound 447],10 to 100 nM,100 to 1000 nM,> 625 nM,< 10 nM
CCCCCOC[C@H]1CCc2cc([C@H]3CC[C@](N)(COP(=O)(O)O)C3)ccc2C1 [compound 448],< 10 nM,< 10 nM,> 625 nM,< 10 nM
N[C@]1(COP(=O)(O)O)CC[C@H](c2ccc3c(c2)CC[C@@H](COc2ccc(F)cc2)C3)C1 [compound 449],< 10 nM,10 to 100 nM,> 625 nM,10 to 100 nM
CCCCCCCCCCOC[C@H]1CCc2cc([C@H]3CC[C@](N)(COP(=O)(O)O)C3)ccc2C1 [compound 450],< 10 nM,< 10 nM,> 625 nM,10 to 100 nM
N[C@]1(COP(=O)(O)O)CC[C@H](c2ccc3c(c2)CC[C@@H](COCCCC(F)(F)F)C3)C1 [compound 451],< 10 nM,< 10 nM,> 625 nM,10 to 100 nM
